# Measured values as given in patent US20130156755A1, “CANCER THERAPY USING A COMBINATION OF A HSP90 INHIBITORY COMPOUNDS AND A VEGF INHIBITOR” (Synta Pharmaceuticals Corp., priority 2010, published 2013).
# “Also recorded” adds a separate entry of the source.
# How the values were obtained:
# [1] = tested on: human NSCLC cell line HCC827; assay: SCID mouse xenograft study, in vivo growth of HCC827 tumors; conditions: 4 doses (FIG. 8)
# Procedure: Tumor-bearing animals (8 mice/group) were injected 1 time per week for a total of 4 doses (arrowheads) with vehicle alone, Compound 1 alone, bevacizumab alone or a combination of Compound 1 and bevacizumab dosed concurrently. Compound 1 was i.v. injected and bevacizumab was i.p. injected. The average tumor volumes for each group (error bars represent SEM) were determined every 2-4 days.
# [2] = tested on: human multiple myeloma cell line RPMI 8226; assay: SCID mouse xenograft model, in vivo growth of RPMI 8226 tumors
# Procedure: (§1) The human non-small cell lung cancer (NSCLC) cell line, NCI-H1975 (ATCC #CRL-5908) was obtained from the American Type Culture Collection (ATCC; Manassas, Va., USA). The human multiple myeloma cell line, RPMI 8226 (ATCC #CCL-155) was also obtained from the ATCC.
# (§2) NCI-H1975 cells were cultured in growth media prepared from 50% Dulbecco's Modified Eagle Medium (high glucose), 50% RPMI Media 1640 (4.5 g/L glucose), 10% fetal bovine serum (FBS), 10 mM HEPES, 1% 100× Penicillin-Streptomycin, 1% 100× sodium pyruvate and 1% 100× MEM non-essential amino acids. RPMI 8226 cells were cultured in growth media prepared with RPMI Media 1640 (4.5 g/L glucose), 10% FBS, 10 mM HEPES, 1% 100× Penicillin-Streptomycin, 1% 100× sodium pyruvate and 1% 100× MEM non-essential amino acids. FBS was obtained from ATCC and all other reagents were obtained from Invitrogen Corp. (Carlsbad, Calif., USA). Cells that had been cryopreserved in liquid nitrogen were rapidly thawed at 37° C. and transferred to a tissue culture flask containing growth media and then incubated at 37° C. in a 5% CO2 incubator. To expand the RPMI 8226 cell line, growth media was changed every 2-3 days and cultures were passaged 1:3 to 1:5 every 3-5 days. When the a 175 cm^2 flask reached approximately 20-40×10(6) total cells, the above passaging process was repeated until sufficient cells had been obtained for implantation into mice. To expand the NCI-H1975 cell line, cultures were split 1:5 every 3 days when 175 cm^2 flasks became 85% confluent. Cultures were passaged by washing with 10 mL of room temperature phosphate buffered saline (PBS) and then disassociating cells by adding 5 mL 1× trypsin-EDTA and incubating at 37° C. until the cells detached from the surface of the flask. To inactivate the trypsin, 5 mL of growth media was added and then the contents of the flask were centrifuged to pellet the cells. The supernatant was aspirated and the cell pellet was resuspended in 10 mL of growth media and the cell number determined using a hemocytometer. Cells were seeded into 175 cm^2 flasks containing 50 mL of growth media and incubated at 37° C. in a 5% CO2 incubator. When the flasks reached 85% confluence, the above passaging process was repeated until sufficient cells had been obtained for implantation into mice.
# (§3) Six to eight week old, female CB17/Icr-Prkdc^scid/Crl (SCID) mice were obtained from Charles River Laboratories (Wilmington, Mass., USA) Animals were housed 4-5/cage in micro-isolators, with a 12 hr/12 hr light/dark cycle, acclimated for at least 1 week prior to use and fed normal laboratory chow ad libitum. Animals were between seven to thirteen weeks of age at implantation. To implant NCI-H1975 or RPMI 8226 tumor cells into SCID mice, cells were collected as described above, washed in PBS and resusupended at a concentration of 5×10(7) cells/mL in 50% non-supplemented medium and 50% Matrigel Basement Membrane Matrix (#354234; BD Biosciences; Bedford, Mass., USA). Using a 27 gauge needle and 1 cc syringe, 5×10(6) […] or RPMI 8226 cells in 0.1 mL of a cell suspension were injected subcutaneously into the flanks of SCID mice.
# (§4) For the NCI-H1975 model, tumors were then permitted to develop in vivo until the majority reached approximately 100-225 mm^3 in tumor volume, which required ˜1½ weeks. For the RPMI 8226 model, tumors were permitted to develop in vivo until the majority reached approximately 80-200 mm^3 in tumor volume, which required ˜3½ weeks. […] Tumor volumes (V) were calculated by caliper measurement of the width (W), length (L) and thickness (T) of tumors using the following formula: V=0.5236×(L×W×T). […]
# [3] = highest non-severely toxic dose (HNSTD) in tumor-bearing SCID mice; assay type: in vivo, mouse; conditions: i.v. dosed once per week, tumor-bearing SCID mice (data not shown)
# Procedure: The combination of Compound 1 and bevacizumab was also examined in the NCI-H1975 model using higher doses of each test article. […] The HNSTD was determined based on prior studies and was defined as the dose and dosing schedule at which no morbidity was observed, and at which no individual animal lost ≧20% of its body weight and no treatment group lost ≧10% average body weight over the course of the study.
# [4] = tested on: human NSCLC cell line NCI-H1975; assay: SCID mouse xenograft model, in vivo growth of NCI-H1975 tumors
# Procedure: as §1, §2, §3, §4
# [5] = tested on: RERF-LC-AI^IVP human lung tumor cells; assay: nude mouse xenograft model, in vivo growth rate of RERF-LC-AI^IVP tumors; conditions: 5 times per week, 15 doses, nude mice
# Procedure: The human squamous non-small cell lung cancer cell line, RERF-LC-AI (RCB0444; S. Kyoizumi, et al., Cancer. Res. 45:3274-3281, 1985), was obtained from the Riken Cell Bank (Tsukuba, Ibaraki, Japan). The cell line was cultured in growth media prepared from 50% Dulbecco's Modified Eagle Medium (high glucose), 50% RPMI Media 1640, 10% fetal bovine serum (FBS), 1% 100× L-glutamine, 1% 100× penicillin-streptomycin, 1% 100× sodium pyruvate and 1% 100× MEM non-essential amino acids. FBS was obtained from American Type Culture Collection (Manassas, Va., USA) and all other reagents were obtained from Invitrogen Corp. (Carlsbad, Calif., USA). […]
# The growth media was replaced every 2-3 days until the flask became 90% confluent, typically in 5-7 days. […] The supernatant was aspirated and the cell pellet was resuspended in 10 ml of growth media and the cell number determined using a hemocytometer. […]
# Seven to eight week old, female Crl:CD-1-nuBR (nude) mice were obtained from Charles River Laboratories (Wilmington, Mass., USA) Animals were housed 4-5/cage in micro-isolators, with a 12 hr/12 hr light/dark cycle, acclimated for at least 1 week prior to use and fed normal laboratory chow ad libitum. […] Tumor volumes (V) were calculated by caliper measurement of the width (W), length (L) and thickness (T) of tumors using the following formula: V=0.5236×(L×W×T). […]
# [6] = body weight changes in nude mouse RERF-LC-AI^IVP xenograft study; assay type: in vivo; conditions: 200 mg/kg body weight i.p., 5 times per week, 15 doses, nude mice
# Procedure: Seven to eight week old, female Crl:CD-1-nuBR (nude) mice were obtained from Charles River Laboratories (Wilmington, Mass., USA) Animals were housed 4-5/cage in micro-isolators, with a 12 hr/12 hr light/dark cycle, acclimated for at least 1 week prior to use and fed normal laboratory chow ad libitum. Studies were conducted on animals between 8 and 12 weeks of age at implantation. To implant RERF-LC-AI tumor cells into nude mice, the cells were trypsinized as above, washed in PBS and resuspended at a concentration of 50×10(6) cells/ml in 50% non-supplemented RPMI Media 1640 and 50% Matrigel Basement Membrane Matrix (#354234; BD Biosciences; Bedford, Mass., USA). Using a 27 gauge needle and 1 cc syringe, 0.1 ml of the cell suspension was injected subcutaneously into the flank of each nude mouse. Tumor volumes (V) were calculated by caliper measurement of the width (W), length (L) and thickness (T) of tumors using the following formula: V=0.5236×(L×W×T).
# The Hsp90 inhibitor, 17-allylamino-17-demethoxygeldanamycin (17-AAG), was employed as a positive control (Albany Molecular Research, Albany, N.Y., USA). Stock solutions of test articles were prepared by dissolving the appropriate amounts of each compound in dimethyl sulfoxide (DMSO) by sonication in an ultrasonic water bath. Stock solutions were prepared weekly, stored at −20° C. and diluted fresh each day for dosing. […]
compound,measurement,setting,value
"CC(C)c1cc(-c2nnc(O)n2-c2ccc3c(ccn3C)c2)c(O)cc1O [Compound 1, 3-(2,4-DIHYDROXY-5- ISOPROPYL-PHENYL)-4-(1- METHYL-INDOL-5-YL)-5- HYDROXY-[1,2,4] TRIAZOLE]",tumor growth,[1]; 150 mg/kg i.v. once per week,moderately inhibited tumor growth
same,tumor growth,"[2]; 12.5 mg/kg i.v. 5 times per week, 15 doses (FIG. 5)",moderately inhibited tumor growth
same,% T/C value,"[2]; 12.5 mg/kg i.v. five times per week (15 doses), day 49, SCID mice",63%
same,% T/C value,"[2]; second study, single dose 12.5 mg/kg, over three days (data not shown)",83%
same,highest non-severely toxic dose (HNSTD),[3],150 mg/kg
same,% T/C value,"[4]; 50 mg/kg i.v. once per week (3 doses), day 29, SCID mice",39%
same,tumor growth,"[4]; 50 mg/kg i.v. once per week, 3 doses (FIG. 3)",moderately inhibited tumor growth
same,% T/C value,"[4]; 150 mg/kg i.v. once per week (4 doses), day 38, SCID mice",3%
same,tumor growth,"[4]; 150 mg/kg i.v. once per week, 4 doses (FIG. 4)",substantially inhibited tumor growth
"C=CCNC1=C2C[C@@H](C)C[C@H](OC)[C@H](O)[C@@H](C)/C=C(\C)[C@H](OC(N)=O)[C@@H](OC)/C=C\C=C(/C)C(=O)NC(=CC1=O)C2=O [Compound 17-AAG, 17-allylamino-17-demethoxygeldanamycin, reference compound]",tumor growth (growth rate of tumor cells),[5]; 75 mg/kg body weight i.p.,inhibited tumor growth; also recorded: decreased the growth rate
"CCc1cc(-c2nnc(S)n2-c2ccc(OC)c3c2ccn3C(C)C)c(O)cc1O [Compound 26, 3-(2,4-DIHYDROXY-5-ETHYL- PHENYL)-4-(1-ISOPROPYL-7- METHOXY-INDOL-4-YL)-5- MERCAPTO-[1,2,4] TRIAZOLE]",tumor growth (growth rate of tumor cells),[5]; 200 mg/kg body weight i.p.,inhibited tumor growth; also recorded: decreased the growth rate
same,overt toxicity (effect on body weights),[6],not overtly toxic; also recorded: not associated with overt toxicity
bevacizumab: Humanized monoclonal antibody that blocks VEGF; VEGF inhibitor purchased from Genentech [reference compound],tumor growth,[1]; 10 mg/kg i.p. once per week,moderately inhibited tumor growth
same,tumor growth,"[2]; 0.3 mg/kg i.p. 2 times a week, 6 doses (FIG. 5)",moderately inhibited tumor growth
same,% T/C value,"[2]; 0.3 mg/kg i.p. twice per week (6 doses), day 49, SCID mice",26%
same,% T/C value,"[2]; second study, single dose 1 mg/kg, over three days (data not shown)",42%
same,% T/C value,"[4]; 2 mg/kg i.p. once per week (3 doses), day 29, SCID mice",18%
same,tumor growth,"[4]; 2 mg/kg i.p. once per week, 3 doses (FIG. 3)",moderately inhibited tumor growth
same,% T/C value,"[4]; 10 mg/kg i.p. once per week (4 doses), day 38, SCID mice",17%
same,tumor growth,"[4]; 10 mg/kg i.p. once per week, 4 doses (FIG. 4)",moderately inhibited tumor growth
